Measurements: patent US12606528B2, “Methods and materials for inhibiting NF-kB activity” (University of Pittsburgh - Of the Commonwealth System of …, priority 2019, dated 2026)

Tests used:
TNF release = assay: TNF assay: TNF release from LPS-stimulated human PBMCs (TNF ELISA); format: cell-based; settings: PBMC; LPS-stimulated human PBMCs, TNF ELISA; read-out: IC50 (TNF assay)
Outline: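 TNF ELISA on supernatants read-out; cells were 10k human PBMCs/well given LPS at 10 ng/mL for 18 h after a 2 h compound pre-incubation across a concentration series, with IC50 derived for suppression of TNF secretion.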

NF-κB = NF-κB assay: THP1-NF-κB-LUC cells, LPS-stimulated secreted luciferase; format: cell-based; settings: THP1-NF-κB-LUC cells, LPS-stimulated; read-out: IC50 (NF-κB assay)
Outline: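 THP1-NF-κB-LUC cells (25k/well) were pretreated with compounds for 2 h, then stimulated with LPS (10 ng/mL) for 18 h. Secreted luciferase was measured and normalized to vehicle, and IC50 was fitted from the concentration series.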

## CN1CCN(CCNC(=O)Nc2ccc3nc(-c4ccc(F)cc4)c(-c4ccc(F)cc4)nc3c2)CC1 [BC19616]
TNF release
  IC50: 1 to 10 µM
NF-κB
  IC50: 0.1 to 1 µM

## O=C(NCCCN1CCCC1=O)Nc1ccc2nc(-c3ccc(F)cc3)c(-c3ccc(F)cc3)nc2c1 [BC19617]
TNF release
  IC50: > 10 µM
NF-κB
  IC50: 0.1 to 1 µM

## CN1CCN(C(=O)c2ccc3nc(-c4ccc(F)cc4)c(-c4ccc(F)cc4)nc3n2)CC1 [BC19618]
TNF release
  IC50: > 10 µM
NF-κB
  IC50: 0.1 to 1 µM

## CNc1ncc(-c2ccc3nc(-c4ccc(F)cc4)c(-c4ccc(F)cc4)nc3c2)o1 [BC19619]
TNF release
  IC50: > 10 µM
NF-κB
  IC50: 1 to 10 µM

## CC(C)[S+]([O-])c1sc(-c2cccc(F)c2)nc1S(=O)(=O)c1ccc(Cl)cc1 (centres unmarked) [BC19620]
TNF release
  IC50: > 10 µM
NF-κB
  IC50: > 10 µM

## CCCS(=O)(=O)c1sc(-c2ccc(Cl)cc2)nc1S(=O)(=O)c1ccc(Cl)cc1 [BC19621]
TNF release
  IC50: 1 to 10 µM
NF-κB
  IC50: 1 to 10 µM

## CC(C)S(=O)(=O)c1sc(-c2ccc(Cl)cc2)nc1S(=O)(=O)c1ccc(Cl)cc1 [BC19622]
TNF release
  IC50: 1 to 10 µM
NF-κB
  IC50: 1 to 10 µM

## O=S(=O)(c1ccc(Cl)cc1)c1nc(-c2ccc(Cl)cc2)sc1S(=O)(=O)C1CCCCC1 [BC19623]
TNF release
  IC50: > 10 µM
NF-κB
  IC50: > 10 µM

## CCCS(=O)(=O)c1sc(-c2ccccc2)nc1S(=O)(=O)c1ccc(Cl)cc1 [BC19624]
TNF release
  IC50: 1 to 10 µM
NF-κB
  IC50: 1 to 10 µM

## COCCS(=O)(=O)c1sc(-c2ccccc2)nc1S(=O)(=O)c1ccc(Cl)cc1 [BC19625]
TNF release
  IC50: 1 to 10 µM
NF-κB
  IC50: 1 to 10 µM

## C[S+]([O-])c1sc(-c2ccccc2F)nc1S(=O)(=O)c1ccc(Cl)cc1 (centres unmarked) [BC19626]
TNF release
  IC50: 1 to 10 µM
NF-κB
  IC50: 1 to 10 µM

## CCC[S+]([O-])c1sc(-c2ccccc2F)nc1S(=O)(=O)c1ccc(Cl)cc1 (centres unmarked) [BC19627]
TNF release
  IC50: > 10 µM
NF-κB
  IC50: 1 to 10 µM

## CCCS(=O)(=O)c1sc(-c2ccccc2F)nc1S(=O)(=O)c1ccc(Cl)cc1 [BC19628]
TNF release
  IC50: > 10 µM
NF-κB
  IC50: > 10 µM

## CC(C)[S+]([O-])c1sc(-c2ccccc2F)nc1S(=O)(=O)c1ccc(Cl)cc1 (centres unmarked) [BC19629]
TNF release
  IC50: > 10 µM
NF-κB
  IC50: > 10 µM

## CC(C)C[S+]([O-])c1sc(-c2ccccc2F)nc1S(=O)(=O)c1ccc(Cl)cc1 (centres unmarked) [BC19630]
TNF release
  IC50: 1 to 10 µM
NF-κB
  IC50: > 10 µM

## CC(C)CS(=O)(=O)c1sc(-c2ccccc2F)nc1S(=O)(=O)c1ccc(Cl)cc1 [BC19631]
TNF release
  IC50: > 10 µM
NF-κB
  IC50: 1 to 10 µM

## O=S(=O)(c1ccc(Cl)cc1)c1nc(-c2ccccc2F)sc1[S+]([O-])CC1CC1 (centres unmarked) [BC19632]
TNF release
  IC50: > 10 µM
NF-κB
  IC50: > 10 µM

## O=S(=O)(CC1CC1)c1sc(-c2ccccc2F)nc1S(=O)(=O)c1ccc(Cl)cc1 [BC19633]
TNF release
  IC50: 1 to 10 µM
NF-κB
  IC50: 1 to 10 µM

## Cn1c(-c2ccccc2)nc(S(=O)(=O)c2ccc(F)cc2)c1S(=O)(=O)CC1CC1 [BC19634]
TNF release
  IC50: > 10 µM
NF-κB
  IC50: > 10 µM

## CC(C)[S+]([O-])c1sc(C2CCCCC2)nc1S(=O)(=O)c1ccc(Cl)cc1 (centres unmarked) [BC19635]
TNF release
  IC50: > 10 µM
NF-κB
  IC50: > 10 µM

## CC(C)S(=O)(=O)c1sc(C2CCCCC2)nc1S(=O)(=O)c1ccc(Cl)cc1 [BC19636]
TNF release
  IC50: > 10 µM
NF-κB
  IC50: > 10 µM

## CC(C)C[S+]([O-])c1sc(C2CCCCC2)nc1S(=O)(=O)c1ccc(Cl)cc1 (centres unmarked) [BC19637]
TNF release
  IC50: > 10 µM
NF-κB
  IC50: > 10 µM

## CC(C)CS(=O)(=O)c1sc(C2CCCCC2)nc1S(=O)(=O)c1ccc(Cl)cc1 [BC19638]
TNF release
  IC50: > 10 µM
NF-κB
  IC50: > 10 µM

## O=S(=O)(CC1CC1)c1sc(C2CCCCC2)nc1S(=O)(=O)c1ccc(Cl)cc1 [BC19639]
TNF release
  IC50: > 10 µM
NF-κB
  IC50: > 10 µM

## C[S+]([O-])c1sc(C2CCCCC2)nc1S(=O)(=O)c1ccc(Cl)cc1 (centres unmarked) [BC19640]
TNF release
  IC50: > 10 µM
NF-κB
  IC50: > 10 µM

## CS(=O)(=O)c1sc(C2CCCCC2)nc1S(=O)(=O)c1ccc(Cl)cc1 [BC19641]
TNF release
  IC50: > 10 µM
NF-κB
  IC50: > 10 µM

## COCC[S+]([O-])c1sc(C2CCCCC2)nc1S(=O)(=O)c1ccc(Cl)cc1 (centres unmarked) [BC19642]
TNF release
  IC50: > 10 µM
NF-κB
  IC50: > 10 µM

## Cn1c(-c2ccccc2)nc(S(=O)(=O)c2ccc(F)cc2)c1[S+](C)[O-] (centres unmarked) [BC19644]
TNF release
  IC50: > 10 µM
NF-κB
  IC50: > 10 µM

## CCC[S+]([O-])c1sc(C2CCCCC2)nc1S(=O)(=O)c1ccc(Cl)cc1 (centres unmarked) [BC19645]
TNF release
  IC50: > 10 µM
NF-κB
  IC50: > 10 µM

## CCCS(=O)(=O)c1sc(C2CCCCC2)nc1S(=O)(=O)c1ccc(Cl)cc1 [BC19646]
TNF release
  IC50: > 10 µM
NF-κB
  IC50: > 10 µM

## O=S1(=O)CCCn2c(-c3ccccc3)nc(S(=O)(=O)c3ccc(Cl)cc3)c21 [BC19647]
TNF release
  IC50: 1 to 10 µM
NF-κB
  IC50: > 10 µM

## O=C1CCOc2c(cc(Br)cc2S(=O)(=O)Nc2ccc(OC(F)(F)F)cc2)N1 [BC19648]
TNF release
  IC50: > 10 µM
NF-κB
  IC50: < 0.1 µM

## O=C1CCOc2c(cc(Br)cc2S(=O)(=O)Nc2cccc(F)c2)N1 [BC19649]
TNF release
  IC50: > 10 µM
NF-κB
  IC50: < 0.1 µM

## O=C1CCOc2c(cc(Br)cc2S(=O)(=O)Nc2cccc(Cl)c2)N1 [BC19650]
TNF release
  IC50: > 10 µM
NF-κB
  IC50: < 0.1 µM
